According to US20010049389A1, “Arthropod-controlling composition” (priority 2000, published 2001):

Key:
Format in all cases: in vivo
[1] = system: eggs of peach fruit moth (Carposina niponensis); assay: Test Example 20: treated artificial food, peach fruit moth eggs; conditions: 1 ml of 500 ppm dilution (Preparation example 2) in 6 g artificial food, after 10 days
Procedure: The formulation obtained in Preparation example 2 was diluted with water to make the concentration of the Pyrone Compound to 500 ppm. One milliliter (1 ml) of the dilution was added to 6 g of artificial food (Insecta LF produced by Nihon Nosankogyo Co.) in plastic cup having 5.5 cm in diameter. About 50 eggs of peach fruit moth (Carposina niponensis) laid on nylon cloth were put into the plastic cup. After 10 days, the ovicidal effect was 90% or more.

[2] = system: adult smokybrown cockroaches (Periplaneta fuliginosa); assay: Test Example 4: smoking formulation in 28 m^3 chamber, smokybrown cockroaches; conditions: 10 g smoking (Preparation example 25) in 28 m^3 chamber
Source text: (§1) In a test chamber of 3 m×4 m and 2.3 m in height (28 m^3), two plastic cups were put at two corners, wherein each cup has ten (5 males and 5 females) adult German cockroaches (Blattella germanica) therein. Ten grams (10 g) of the smoking obtained in Preparation example 25 and 50g of magnesium oxide were charged into each of the cells in an aluminum container having an aluminum wall. The cell charged magnesium oxide has small holes. The aluminum container was dipped into water in the plastic container set in the test chamber. The smoking was heated to release the vaporized active ingredient by the reaction heats of magnesium oxide with water. After 2 hours, knock-down percentage was observed. Further, the cockroaches were transferred to a clean plastic cup and given foods and water. The mortality was observed after 7 days.
(§2) Furthermore, the same tests were performed except that six (3 males and 3 females) adult smokybrown cockroaches (Periplaneta fuliginosa) and six (3 males and 3 females) adult American cockroaches (Periplaneta americana) were used in place of ten German cockroaches.

[3] = system: adult American cockroaches (Periplaneta americana); assay: Test Example 4: smoking formulation in 28 m^3 chamber, American cockroaches; conditions: 10 g smoking (Preparation example 25) in 28 m^3 chamber
Source text: as §1, §2

[4] = system: female adult common mosquitoes (Culex pipiens pallens); assay: Test Example 2: oil solution spray in glass chamber, knock-down of common mosquitoes; conditions: 0.7 ml of 0.5% oil solution sprayed in 0.34 m^3 glass chamber, two repetitions
Procedure: Ten (5 males and 5 females) adult houseflies (Musca domestica) were released in a glass chamber (70 cm cube, capacity: 0.34 m^3). Seven-tenth milliliter (0.7 ml) of the oil solution obtained in Preparation example 9 was applied into the chamber with a spray gun at a pressure of 0.9 kg/cm^2. Fifteen minutes after spraying, the knocked-down houseflies were counted. Reference compound was also tested.
The same procedure was performed as in Test example 1 except that ten female adult common mosquitoes (Culex pipiens pallens) in place of houseflies were used. As a result of two repetitions, the knock-down percentage at 15 minutes after spraying was 100%.

[5] = system: adult smokybrown cockroaches (Periplaneta fuliginosa); assay: Test Example 5: heating fumigant (ceramic plate) in 5.8 m^3 chamber, smokybrown cockroaches; conditions: heating fumigant (Preparation example 24, 500 mg) at about 200° C. in 5.8 m^3 chamber
Procedure: On the bottom of a cubic chamber having 1.8 m of side (5.8 m^3), the heating fumigant (ceramic plate) obtained in Preparation example 24 with an electric heater was set in the center. Two plastic cups were put at two corners in the chamber, wherein each cup has ten (5 males and 5 females) adult German cockroaches (Blattella germanica) therein. Two hours after turning on an electric current, the ceramic plate was heated to about 200° C. (200±5° C.) and the active ingredient was vaporized. The heating temperature was estimated by measuring a surface temperature of the ceramic plate with radiation pyrometer (TR-0506C produced by Minolta Company) in advance. Then, the knocked-down cockroaches were counted and the knock-down percentage was calculated. Further, the cockroaches were transferred to a clean plastic cup and given foods and water. The mortality was observed after 7 days.
as §2

[6] = system: termites (Coptotermes formosanus); assay: Test Example 9: treated soil after 3 months storage, termites; conditions: 10 ml of 0.5% (w/w) solution in 200 g soil, kept 3 months at 40° C. in the dark, after 10 days
Procedure: The Pyrone Compound was dissolved in water to give a 10 ml solution having 0.5% (w/w) of a concentration. The solution was mixed with 200 g of soil and air-dried. After keeping for 3 months at 40° C. and in the dark, about 10 g of the soil were put on a plastic Petri dish having 9 cm in diameter. The soil was wetted with distilled water and 10 termites (Coptotermes formosanus) were released thereon. After 10 days, the termites were observed and the percent moribund was 100%.

[7] = system: cat flea (Ctenocephalides felis) eggs; assay: Test Example 8: treated filter paper, hatching of cat flea eggs
Procedure: A designated amount of the Pyrone Compound was dissolved in acetone to give a 0.2 ml solution, which was uniformly treated on a filter paper having 3.8 cm in diameter, and air-dried for one hour. The filter paper was set on an aluminum plate of 4 cm in diameter. Twenty cat flea (Ctenocephalides felis) eggs were put on the filter paper and the plate was kept at 25±3° C. and 70-90% of humidity in a plastic Petri dish. After 7 days, the hatching was observed. The tests were repeated three times and the results are given in […]

SMILES: Cc1cc(O)c(C(=O)CC(C)C)c(=O)o1 [The Pyrone Compound]
- ovicidal effect [1]: ≥ 90%
- Knock-down percentage (%) ([2]; after 2 hours): 100%
- Mortality (%) ([2]; after 7 days): 100%
- Knock-down percentage (%) ([3]; after 2 hours): 100%
- Mortality (%) ([3]; after 7 days): 75%
- knock-down percentage at 15 minutes after spraying [4]: 100%
- Mortality (%) ([5]; after 7 days): 83%
- Knock-down percentage (%) ([5]; two hours): 100%
- percent moribund [6]: 100%
- Hatching ratio (%) ([7]; dosage 5 mg/m^2, after 7 days): 1.7%
- Hatching ratio (%) ([7]; dosage 25 mg/m^2, after 7 days): 0%
- Hatching ratio (%) ([7]; dosage 125 mg/m^2, after 7 days): 0%
